pEC50: −log10 of the molar value.

T1 sequence (P56159 25-429 limits assumed): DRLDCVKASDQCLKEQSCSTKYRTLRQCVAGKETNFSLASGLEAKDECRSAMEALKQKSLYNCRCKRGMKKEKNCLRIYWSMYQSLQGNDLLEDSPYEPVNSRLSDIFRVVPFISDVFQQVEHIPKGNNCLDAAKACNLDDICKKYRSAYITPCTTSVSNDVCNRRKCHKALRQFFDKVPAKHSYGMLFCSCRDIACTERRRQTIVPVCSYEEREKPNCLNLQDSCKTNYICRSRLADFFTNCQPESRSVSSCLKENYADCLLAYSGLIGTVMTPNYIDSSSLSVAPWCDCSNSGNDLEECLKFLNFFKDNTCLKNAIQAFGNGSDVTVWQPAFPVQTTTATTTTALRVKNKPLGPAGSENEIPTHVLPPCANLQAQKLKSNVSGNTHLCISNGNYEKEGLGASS
T1 sequence (P07949 29-1114 partner): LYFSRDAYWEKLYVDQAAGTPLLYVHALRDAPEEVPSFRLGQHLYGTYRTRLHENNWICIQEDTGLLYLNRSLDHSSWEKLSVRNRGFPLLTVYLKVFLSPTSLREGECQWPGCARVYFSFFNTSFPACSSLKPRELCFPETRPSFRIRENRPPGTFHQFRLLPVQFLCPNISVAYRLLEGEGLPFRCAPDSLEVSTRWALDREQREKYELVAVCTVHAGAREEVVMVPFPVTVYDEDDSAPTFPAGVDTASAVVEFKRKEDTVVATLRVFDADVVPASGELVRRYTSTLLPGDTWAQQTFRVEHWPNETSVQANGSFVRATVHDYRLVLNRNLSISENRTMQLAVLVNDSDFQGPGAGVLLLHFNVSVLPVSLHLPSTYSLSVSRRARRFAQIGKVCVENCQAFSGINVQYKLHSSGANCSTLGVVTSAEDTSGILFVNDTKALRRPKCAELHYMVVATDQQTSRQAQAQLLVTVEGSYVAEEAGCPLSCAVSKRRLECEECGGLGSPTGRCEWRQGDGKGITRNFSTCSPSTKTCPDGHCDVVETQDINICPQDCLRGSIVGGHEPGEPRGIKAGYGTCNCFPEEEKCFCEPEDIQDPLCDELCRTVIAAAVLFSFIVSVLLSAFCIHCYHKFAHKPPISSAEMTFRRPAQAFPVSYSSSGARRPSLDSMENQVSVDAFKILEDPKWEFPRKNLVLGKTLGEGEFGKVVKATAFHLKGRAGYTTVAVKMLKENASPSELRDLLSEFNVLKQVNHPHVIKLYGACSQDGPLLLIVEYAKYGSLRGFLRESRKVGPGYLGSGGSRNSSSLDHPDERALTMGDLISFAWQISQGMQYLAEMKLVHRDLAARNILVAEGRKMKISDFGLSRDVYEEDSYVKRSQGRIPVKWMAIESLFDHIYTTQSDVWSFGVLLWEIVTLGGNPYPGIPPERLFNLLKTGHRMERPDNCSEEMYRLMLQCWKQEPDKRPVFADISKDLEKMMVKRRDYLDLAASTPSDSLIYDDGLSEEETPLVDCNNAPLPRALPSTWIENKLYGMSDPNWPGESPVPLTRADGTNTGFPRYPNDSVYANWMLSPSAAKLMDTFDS

The assay concerns the target T1, GFRα1-RET (Homo sapiens, UniProt P56159).
T1 construct: expressed in transfected cells; host or cells: MG87 murine fibroblast
Kind of assay: Luciferase assay: activation of Elk1 signaling in reporter-gene cells expressing GFRα1-RET (MG87 murine fibroblast stably transfected with PathDetect Elk-1, GFRα1, and RET). It counts as cell-based. Conditions: Table 4; MG87 murine fibroblasts with PathDetect Elk-1, GFRα1, RET; 6 concentrations, duplicate, two times independently; agonist/activator activity; read-out: Luciferase Assay EC50. Here is the method:
The purpose of this experiment was to evaluate the GFRα1-RET activity of the compounds 001-060 according to the invention.
The compounds were tested for their activating activity of Elk1 signaling using the previously developed reporter-gene-based system in cells expressing GFRα1-RET (MG87 murine fibroblast stably transfected with PathDetect Elk-1, GFRα1, and RET) disclosed in Sidorova, Y. A. et al.: “Persephin signaling through GFRα1: The potential for the treatment of Parkinson's disease.” Molecular and Cellular Neuroscience, July 2010, Vol. 44, pp. 223-232. DOI: 10.1016/j.mcn.2010.03.009. For EC50 determination, a dose-response test was performed using 6 concentrations of each tested compound. Dose-response curves were fitted using the sigmoidal dose-response (variable slope) analysis in GraphPad Prism program (Graph Pad Inc) and EC50 of agonist/activator activity was calculated. Dose-response experiments were all performed in duplicate, two times independently.
The compounds were tested for their activating activity of Elk1 signaling using the same materials and methods than for the compounds according to the invention (Example 2 herein, section “Materials and methods”).
Turning to `COc1ccc(S(=O)(=O)N(C)Cc2ccc(F)cc2)cc1N1CCN(C(=O)c2ccc(F)cc2Cl)CC1` [Compound 021, 3-[4-(2-chloro-4-fluoro-benzoyl)piperazin-1-yl]-N-[(4-fluorophenyl)methyl]-4-methoxy-N-methyl-benzenesulfonamide], the negative logarithm of the EC50 (pEC50) – broadly, −log10 of the EC50, conventionally taken in molar units – is 5.00 to 5.30.

Consider `COc1ccc(S(=O)(=O)N2CC3CN(C(=O)OC(C)(C)C)CC3C2)cc1N1CCN(C(=O)c2ccc(F)cc2Cl)CC1` (stereo not shown) [Compound 022, tert-butyl 5-[3-[4-(2-chloro-4-fluoro-benzoyl)piperazin-1-yl]-4-methoxy-phenyl]sulfonyl-1,3,3a,4,6,6a-hexahydropyrrolo[3,4-c]pyrrole-2-carboxylate], for which the negative-log EC50 (pEC50) was 4.30 to 5.00.

Turning to `COc1ccc(S(=O)(=O)N2CCC(=Cc3ccccc3)CC2)cc1N1CCN(C(=O)c2ccc(F)cc2Cl)CC1` [Compound 023, [4-[5-[(4-benzylidene-1-piperidyl)sulfonyl]-2-methoxy-phenyl]piperazin-1-yl]-(2-chloro-4-fluoro-phenyl)methanone], the negative-log EC50 (pEC50) was above 6.00.

Regarding `COc1ccc(S(=O)(=O)N2CCC(CCc3ccccc3)CC2)cc1N1CCN(C(=O)c2ccc(F)cc2Cl)CC1` [Compound 024, (2-chloro-4-fluoro-phenyl)-[4-[2-methoxy-5-[[4-(2-phenylethyl)-1-piperidyl]sulfonyl]phenyl]piperazin-1-yl]methanone], the pEC50 is above 6.00.

Turning to `COc1ccc(S(=O)(=O)N2CCC(c3ccccc3)CC2)cc1N1CCN(C(=O)c2ccc(F)cc2Cl)CC1` [Compound 025, (2-chloro-4-fluoro-phenyl)-[4-[2-methoxy-5-[(4-phenyl-1-piperidyl)sulfonyl]phenyl]piperazin-1-yl]methanone], the pEC50 is above 6.00.

`COc1ccc(S(=O)(=O)N2CCCC(c3ccccc3)C2)cc1N1CCN(C(=O)c2ccc(F)cc2Cl)CC1` (stereo not shown) [Compound 026, (2-chloro-4-fluoro-phenyl)-[4-[2-methoxy-5-[[3-phenyl-1-piperidyl]sulfonyl]phenyl]piperazin-1-yl]methanone]: the negative logarithm of the EC50 (pEC50) is 5.30 to 6.00.

On to `COc1ccc(S(=O)(=O)N2CCCC(Cc3ccccc3)C2)cc1N1CCN(C(=O)c2ccc(F)cc2Cl)CC1` (stereo not shown) [Compound 027, (2-chloro-4-fluoro-phenyl)-[4-[2-methoxy-5-[[3-benzyl-1-piperidyl]sulfonyl]phenyl]piperazin-1-yl]methanone], for which the pEC50 is 5.30 to 6.00.

Take `COc1ccc(S(=O)(=O)N2CCC(c3ccccc3)C2)cc1N1CCN(C(=O)c2ccc(F)cc2Cl)CC1` (stereo not shown) [Compound 028, (2-chloro-4-fluoro-phenyl)-[4-[2-methoxy-5-[3-phenylpyrrolidin-1-yl]sulfonyl-phenyl]piperazin-1-yl]methanone]: the negative-log EC50 (pEC50) is 5.30 to 6.00.

Turning to `COc1ccc(S(=O)(=O)N2CCC(Cc3ccccc3)C2)cc1N1CCN(C(=O)c2ccc(F)cc2Cl)CC1` (stereo not shown) [Compound 029, (2-chloro-4-fluoro-phenyl)-[4-[2-methoxy-5-[3-benzylpyrrolidin-1-yl]sulfonyl-phenyl]piperazin-1-yl]methanone], the pEC50 is 5.00 to 5.30.

Consider `CCCN(C)S(=O)(=O)c1ccc(OC)c(N2CCN(C(=O)c3ccc(F)cc3Cl)CC2)c1` [Compound 030, 3-[4-(2-chloro-4-fluoro-benzoyl)piperazin-1-yl]-4-methoxy-N-methyl-N-propyl-benzenesulfonamide], for which the pEC50 is 5.30 to 6.00.

Take `COc1ccc(S(=O)(=O)N2CCC(C(F)(F)F)CC2)cc1N1CCN(C(=O)c2ccc(F)cc2Cl)CC1` [Compound 031, (2-chloro-4-fluoro-phenyl)-[4-[2-methoxy-5-[[4-(trifluoromethyl)-1-piperidyl]sulfonyl]phenyl]piperazin-1-yl]methanone]: the pEC50 was 5.30 to 6.00.

Take `COc1ccc(S(=O)(=O)NC(C)(C)C)cc1N1CCN(C(=O)c2ccc(F)cc2Cl)CC1` [Compound 032, N-tert-butyl-3-[4-(2-chloro-4-fluoro-benzoyl)piperazin-1-yl]-4-methoxy-benzenesulfonamide]: the pEC50 is 5.30 to 6.00.

`COc1ccc(S(=O)(=O)N(C)C(C)(C)C)cc1N1CCN(C(=O)c2ccc(F)cc2Cl)CC1` [Compound 033, N-tert-butyl-3-[4-(2-chloro-4-fluoro-benzoyl)piperazin-1-yl]-4-methoxy-N-methyl-benzenesulfonamide]: the pEC50 is 5.00 to 5.30.

For `COc1ccc(S(=O)(=O)NC2C3CC4CC(C3)CC2C4)cc1N1CCN(C(=O)c2ccc(F)cc2Cl)CC1` (stereo not shown) [Compound 034, N-(2-adamantyl)-3-[4-(2-chloro-4-fluoro-benzoyl)piperazin-1-yl]-4-methoxy-benzenesulfonamide], the negative logarithm of the EC50 (pEC50) is 5.00 to 5.30.

For `COc1ccc(S(=O)(=O)NC2(C)CCCCC2)cc1N1CCN(C(=O)c2ccc(F)cc2Cl)CC1` [Compound 035, 3-[4-(2-chloro-4-fluoro-benzoyl)piperazin-1-yl]-4-methoxy-N-(1-methylcyclohexyl)benzenesulfonamide], the pEC50 was 5.30 to 6.00.

`COc1ccc(S(=O)(=O)N2CC3CCC2C3)cc1N1CCN(C(=O)c2ccc(F)cc2Cl)CC1` (stereo not shown) [Compound 036, (2-chloro-4-fluoro-phenyl)-[4-[2-methoxy-5-[[2-azabicyclo[2.2.1]heptan-2-yl]sulfonyl]phenyl]piperazin-1-yl]methanone]: the negative-log EC50 (pEC50) was 4.30 to 5.00.

Turning to `COc1ccc(S(=O)(=O)N(C)CCCC(F)(F)F)cc1N1CCN(C(=O)c2ccc(F)cc2Cl)CC1` [Compound 037, 3-[4-(2-chloro-4-fluoro-benzoyl)piperazin-1-yl]-4-methoxy-N-methyl-N-(4,4,4-trifluorobutyl)benzenesulfonamide], the pEC50 is 4.30 to 5.00.

Take `COc1ccc(S(=O)(=O)N2CCCC(OCc3ccccc3)C2)cc1N1CCN(C(=O)c2ccc(F)cc2Cl)CC1` (stereo not shown) [Compound 038, (2-chloro-4-fluoro-phenyl)-[4-[2-methoxy-5-[[3-benzyloxy-1-piperidyl]sulfonyl]phenyl]piperazin-1-yl]methanone]: the pEC50 is 5.30 to 6.00.

Take `COc1ccc(S(=O)(=O)N2CCC(OCc3ccccc3)C2)cc1N1CCN(C(=O)c2ccc(F)cc2Cl)CC1` (stereo not shown) [Compound 039, (2-chloro-4-fluoro-phenyl)-[4-[2-methoxy-5-[3-benzyloxypyrrolidin-1-yl]sulfonyl-phenyl]piperazin-1-yl]methanone]: the negative-log EC50 (pEC50) was 5.30 to 6.00.

On to `COc1ccc(S(=O)(=O)N2CC3CN(Cc4ccccc4)CC3C2)cc1N1CCN(C(=O)c2ccc(F)cc2Cl)CC1` (stereo not shown) [Compound 040, [4-[5-[[2-benzyl-1,3,3a,4,6,6a-hexahydropyrrolo[3,4-c]pyrrol-5-yl]sulfonyl]-2-methoxy-phenyl]piperazin-1-yl]-(2-chloro-4-fluoro-phenyl)methanone], for which the pEC50 was 4.30 to 5.00.

In the case of `CCN(CC)S(=O)(=O)c1cccc(N2CCN(C(=O)c3ccc(F)cc3C(F)(F)F)CC2)c1` [Compound 041, N,N-diethyl-3-[4-[4-fluoro-2-(trifluoromethyl)benzoyl]piperazin-1-yl]benzenesulfonamide], the pEC50 was 4.30 to 5.00.

As to `CCCN(C)S(=O)(=O)c1ccc(F)c(N2CCN(C(=O)c3ccc(F)cc3C(F)(F)F)CC2)c1` [Compound 042, 4-fluoro-3-[4-[4-fluoro-2-(trifluoromethyl)benzoyl]piperazin-1-yl]-N-methyl-N-propyl-benzenesulfonamide], the pEC50 was 5.30 to 6.00.

Take `CCCN(C)S(=O)(=O)c1cc2c(c(N3CCN(C(=O)c4ccc(F)cc4C(F)(F)F)CC3)c1)OCC2` [Compound 043, 7-[4-[4-fluoro-2-(trifluoromethyl)benzoyl]piperazin-1-yl]-N-methyl-N-propyl-2,3-dihydrobenzofuran-5-sulfonamide]: the negative-log EC50 (pEC50) is 5.30 to 6.00.

Consider `CCN(CC)S(=O)(=O)c1cnc(Cl)c(N2CCN(C(=O)c3ccc(F)cc3C(F)(F)F)CC2)c1` [Compound 044, 6-chloro-N,N-diethyl-5-[4-[4-fluoro-2-(trifluoromethyl)benzoyl]piperazin-1-yl]pyridine-3-sulfonamide], for which the pEC50 is 4.30 to 5.00.

For `CCN(CC)S(=O)(=O)c1cnc(OC)c(N2CCN(C(=O)c3ccc(F)cc3C(F)(F)F)CC2)c1` [Compound 045, N,N-diethyl-5-[4-[4-fluoro-2-(trifluoromethyl)benzoyl]piperazin-1-yl]-6-methoxy-pyridine-3-sulfonamide], the pEC50 was 4.30 to 5.00.

Take `CCCN(C)S(=O)(=O)c1ccc(OCCOC)c(N2CCN(C(=O)c3ccc(F)cc3C(F)(F)F)CC2)c1` [Compound 046, 3-[4-[4-fluoro-2-(trifluoromethyl)benzoyl]piperazin-1-yl]-4-(2-methoxyethoxy)-N-methyl-N-propyl-benzenesulfonamide]: the negative logarithm of the EC50 (pEC50) is 5.00 to 5.30.

As for `CCCN(C)S(=O)(=O)c1ccc(OCc2ccccc2)c(N2CCN(C(=O)c3ccc(F)cc3C(F)(F)F)CC2)c1` [Compound 047, 4-benzyloxy-3-[4-[4-fluoro-2-(trifluoromethyl)benzoyl]piperazin-1-yl]-N-methyl-N-propyl-benzenesulfonamide], the pEC50 was 5.30 to 6.00.

With `CCCN(C)S(=O)(=O)c1ccc(O)c(N2CCN(C(=O)c3ccc(F)cc3C(F)(F)F)CC2)c1` [Compound 048, 3-[4-[4-fluoro-2-(trifluoromethyl)benzoyl]piperazin-1-yl]-4-hydroxy-N-methyl-N-propyl-benzenesulfonamide], the pEC50 was 5.00 to 5.30.

For the origin of these results see patent US20260356810A1, “NOVEL PIPERAZINE-BASED SULFONAMIDES AND THEIR USE AS NEUROPROTECTIVE AND/OR NEURORESTORATIVE AGENTS” (GENECODE, priority 2022, published 2026).
